The target in assay [1] is Sodium-dependent serotonin transporter (Rattus norvegicus, UniProt P31652). Nature of the assay: Displacement of [3H]paroxetine from Serotonin transporter of rat frontal cortex membrane. In kind it is tissue-based.
The target of assay [2] is Monoamine transporters; serotonin & dopamine (Rattus norvegicus) (UniProt P31652+P23977). As to the kind of experiment: Relative affinity for serotonin and Dopamine transporters. Format: protein assay.
Assay [3] has as its target Sodium-dependent dopamine transporter (Rattus norvegicus, UniProt P23977). Nature of the assay: Displacement of [125I]RTI-55 from Dopamine transporter of rat striatal membrane.

pIC50, pKi: −log10 of the molar value. Some results are limits rather than exact numbers.

The text below walks through data of ChEMBL document CHEMBL1134189, “Synthesis and monoamine transporter affinity of 3beta-(4-(2-pyrrolyl)phenyl)-8-azabicycl” (Bioorg Med Chem Lett, 2001).

For orientation: pKi means the negative decadic logarithm of the Ki, by convention in mol/L. A higher pKi goes with a small Ki. The term pIC50 denotes −log10 of the IC50, conventionally taken in molar units. The low end stands for a large IC50, the high end for a small IC50.

Sequence of Sodium-dependent serotonin transporter (P31652 whole entry): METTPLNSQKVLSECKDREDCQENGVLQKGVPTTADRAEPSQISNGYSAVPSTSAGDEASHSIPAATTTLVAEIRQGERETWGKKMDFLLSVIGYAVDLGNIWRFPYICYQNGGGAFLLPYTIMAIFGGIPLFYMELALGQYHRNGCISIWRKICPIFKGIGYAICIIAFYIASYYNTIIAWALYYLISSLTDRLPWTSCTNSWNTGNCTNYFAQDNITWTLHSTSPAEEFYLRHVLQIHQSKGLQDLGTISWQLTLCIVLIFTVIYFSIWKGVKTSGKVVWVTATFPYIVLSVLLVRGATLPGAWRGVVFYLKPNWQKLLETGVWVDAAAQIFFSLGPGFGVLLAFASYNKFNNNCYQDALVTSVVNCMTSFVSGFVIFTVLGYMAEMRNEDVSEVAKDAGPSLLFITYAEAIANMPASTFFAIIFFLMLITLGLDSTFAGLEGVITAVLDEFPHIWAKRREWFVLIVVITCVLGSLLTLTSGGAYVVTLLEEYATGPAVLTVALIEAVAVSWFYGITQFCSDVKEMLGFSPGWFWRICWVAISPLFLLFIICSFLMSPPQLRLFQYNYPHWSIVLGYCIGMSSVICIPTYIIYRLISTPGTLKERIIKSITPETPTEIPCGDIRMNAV
Sequence of Monoamine transporters; serotonin & dopamine (Rattus norvegicus) (P23977 whole entry, looked up): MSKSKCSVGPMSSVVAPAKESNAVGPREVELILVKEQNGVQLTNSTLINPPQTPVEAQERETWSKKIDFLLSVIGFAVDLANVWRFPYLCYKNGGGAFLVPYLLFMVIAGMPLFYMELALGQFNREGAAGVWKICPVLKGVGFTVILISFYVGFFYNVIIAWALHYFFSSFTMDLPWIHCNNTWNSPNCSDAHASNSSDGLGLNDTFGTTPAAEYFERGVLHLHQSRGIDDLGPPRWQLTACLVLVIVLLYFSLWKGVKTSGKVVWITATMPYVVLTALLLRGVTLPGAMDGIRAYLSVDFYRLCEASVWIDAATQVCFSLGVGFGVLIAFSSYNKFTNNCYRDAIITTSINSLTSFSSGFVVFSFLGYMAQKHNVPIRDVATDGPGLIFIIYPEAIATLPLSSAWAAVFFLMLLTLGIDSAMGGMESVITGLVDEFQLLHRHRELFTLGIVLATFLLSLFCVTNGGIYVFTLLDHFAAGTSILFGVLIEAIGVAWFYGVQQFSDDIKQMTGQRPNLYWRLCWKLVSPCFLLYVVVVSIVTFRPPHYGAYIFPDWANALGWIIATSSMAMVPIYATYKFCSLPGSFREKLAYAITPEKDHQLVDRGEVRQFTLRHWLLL
Sequence of Monoamine transporters; serotonin & dopamine (Rattus norvegicus) (P31652 whole entry, looked up): as the sequence (P31652 whole entry) above
Sequence of Sodium-dependent dopamine transporter (P23977 whole entry): as the sequence (P23977 whole entry, looked up) above

The compound `CCOC(=O)C1C2CCC(CC1c1ccc(-c3c(C)ccn3C)cc1)N2` (centres undefined) gave a negative logarithm of the Ki (pKi) in assay [1] of 7.31.
As to `CCOC(=O)C1C2CCC(CC1c1ccc3c(ccn3C)c1)N2` (centres undefined), in assay [2], the Ratio was determined as 1.57. The pKi in assay [1] is 8.76. In addition, the negative logarithm of the IC50 (pIC50) in assay [3] was 8.56.
In the same order, the values of `CCOC(=O)C1C(c2ccc(-c3cccn3Cc3ccccc3)cc2)CC2CCC1N2C` (centres undefined) are 0.98, 7.23 and 7.24.
For `CCOC(=O)C1C(c2ccc3c(ccn3CC)c2)CC2CCC1N2C` (centres undefined), the Ratio in assay [2] is 0.22. The compound also gave a negative-log Ki (pKi) in assay [1] of 8.26. The same compound gave a pIC50 in assay [3] of 8.92.
In the case of `CCOC(=O)C1C2CCC(CC1c1ccc3c(ccn3CC)c1)N2` (centres undefined), the Ratio in assay [2] came to 0.78. In assay [1], the pKi is 8.52. Besides, the pIC50 in assay [3] is 8.63.
On to `CCOC(=O)C1C2CCC(CC1c1ccc(-c3ccc(C)n3C)cc1)N2` (centres undefined), for which, in assay [2], the Ratio turned out to be 16.8. The pKi in assay [1] was 7.31. The compound further gave a pIC50 in assay [3] of 6.08.
Take `CCOC(=O)C1C(c2ccc3c(ccn3C)c2)CC2CCC1N2C` (centres undefined): the Ratio in assay [2] is 0.26. In assay [1], this compound showed a pKi of 8.55. In assay [3], the pIC50 is 9.12.
Regarding `CCOC(=O)C1C(c2ccc(-c3c(C)ccn3C)cc2)CC2CCC1N2C` (centres undefined), the pKi in assay [1] is less than 6.00. The pIC50 in assay [3] is less than 6.00.
With `CCOC(=O)C1C(c2ccc(-c3cccn3CC)cc2)CC2CCC1N2C` (centres undefined), in assay [2], the Ratio is greater than 2.97. In assay [1], the pKi is 6.47. In addition, the pIC50 in assay [3] was less than 6.00.
Consider `CCOC(=O)C1C2CCC(CC1c1ccc(-c3cccn3CC)cc1)N2` (centres undefined), for which the Ratio in assay [2] is greater than 63.7. In assay [1], this compound had a pKi of 7.80. Also, the pIC50 in assay [3] is less than 6.00.
On the same counts, the results for `CCOC(=O)C1C(c2ccc(-c3cccn3C)cc2)CC2CCC1N2C` (centres undefined) are 27.4, 7.59 and 6.15.
`CCOC(=O)C1C2CCC(CC1c1ccc(-c3cccn3Cc3ccccc3)cc1)N2` (centres undefined): the Ratio in assay [2] worked out at 5.06. In assay [1], this compound showed a negative-log Ki (pKi) of 8.20. Besides, the pIC50 in assay [3] was 7.49.
In the case of `CCOC(=O)C1C2CCC(CC1c1ccc(-c3ccc(-c4ccccc4)n3C)cc1)N2` (centres undefined), the Ratio in assay [2] is greater than 8.93. In assay [1], the pKi was 6.95. This compound also gave a pIC50 in assay [3] of less than 6.00.
As to `CCOC(=O)C1C2CCC(CC1c1ccc(-c3cccn3C)cc1)N2` (centres undefined), in assay [2], the Ratio was determined as 585. This compound also showed a pKi in assay [1] of 8.98. For the same compound, the pIC50 in assay [3] was 6.21.
